Data on one molecule can be found in ChEMBL document CHEMBL4402573, “Discovery and Optimization of α-Mangostin Derivatives as Novel PDE4 Inhibitors for the Treatment of Vascular Dementia” (J Med Chem, 2020).

The nature of series [1]: AUC(0 to infinity) in Sprague-Dawley rat at 5 mg/kg, po measured upto 24 hrs by LC-MS/MS analysis. The series is classed as ADME, organism-based. Set-up: dose 5 mg/kg, time infinity, route oral. To be noted: in vivo.
A short description of series [2]: Toxicity in Beagle dog assessed as animals exhibiting emesis at 10 mg/kg, po observed for 180 mins. The settings on record: in vivo, 3 h. Type of series: organism-based, Canis lupus familiaris.
Series [3] deals with Cytochrome P450 2C9 (Homo sapiens, UniProt P11712). The experiment in a line: Inhibition of human CYP2C9. The series is classed as ADME.
The nature of series [4]: Tmax in Sprague-Dawley rat at 2.5 mg/kg, iv measured upto 24 hrs by LC-MS/MS analysis. The settings on record: in vivo. Type of series: ADME, organism-based.
Series [5] in a line: Stability in rat liver microsomes assessed as half life at 0.5 uM. Type of series: ADME, Microsome. For orientation: Liver microsomes are a subcellular fraction often used to study metabolism.
The target in series [6] is Cytochrome P450 1A2 (Homo sapiens, UniProt P05177). The experiment in a line: Inhibition of human CYP1A2. The series is classed as ADME.
Series [7] deals with High affinity cAMP-specific and IBMX-insensitive 3',5'-cyclic phosphodiesterase 8A (Homo sapiens, UniProt O60658). The series can be described thus: Inhibition of human PDE8A1 (480 to 820 residues) expressed in Escherichia coli BL21 codon-plus cells using [3H]cAMP as substrate incubated for 15 mins by liquid scintillation counting method.
Series [8] can be described thus: Oral bioavailability in Sprague-Dawley rat at 5 mg/kg measured upto 24 hrs by LC-MS/MS analysis. The settings on record: in vivo. The series is classed as ADME, organism-based.
Series [9] concerns the target Dual specificity calcium/calmodulin-dependent 3',5'-cyclic nucleotide phosphodiesterase 1B (Homo sapiens, UniProt Q01064). The series can be described thus: Inhibition of human PDE1B (10 to 487 residues) expressed in Escherichia coli BL21 codon-plus cells using [3H]cAMP as substrate incubated for 15 mins by liquid scintillation counting method.
In series [10] the test system is Mus musculus. The series can be described thus: Anti-VaD activity against UCCAO-induced spatial memory deficient C57BL/6J mouse model assessed as improvement in spatial learning and memory by measuring reduction in escape latency at 10 mg/kg, po administered for 21 days by Morris water maze test. The series is classed as functional, organism-based.
The nature of series [11]: Protein binding in rat plasma at 1 uM by LC-MS/MS analysis. The series is classed as ADME, cell-free. To be noted: read-out: PPB.
For series [12], the species on record is Homo sapiens. The series can be described thus: Selectivity index, ratio of IC50 for human PDE2A (580 to 919 residues) expressed in Escherichia coli BL21 codon-plus cells to IC50 for human PDE4D2 (86 to 413 residues) expressed in Escherichia coli BL21 codon-plus cells.
The nature of series [13]: Half life in Sprague-Dawley rat at 5 mg/kg, po measured upto 24 hrs by LC-MS/MS analysis. The series is classed as ADME, organism-based. The settings on record: in vivo.
For series [14], the species on record is Homo sapiens. The experiment in a line: Selectivity index, ratio of IC50 for human PDE9A2 (181 to 506 residues) expressed in Escherichia coli BL21 codon-plus cells to IC50 for human PDE4D2 (86 to 413 residues) expressed in Escherichia coli BL21 codon-plus cells.
Series [15] relates to Mus musculus. The experiment in a line: Anti-VaD activity against UCCAO-induced spatial memory deficient C57BL/6J mouse model assessed as improvement in spatial learning and memory by measuring increase in frequency of platform area crossings at 10 mg/kg, po administered for 21 days by Morris water maze test. The series is classed as functional, organism-based.
Series [16] deals with cAMP and cAMP-inhibited cGMP 3',5'-cyclic phosphodiesterase 10A (Homo sapiens, UniProt Q9Y233). The series can be described thus: Inhibition of human PDE10A2 (449 to 770 residues) expressed in Escherichia coli BL21 codon-plus cells using [3H]cAMP as substrate incubated for 15 mins followed by substrate addition by liquid scintillation counting method.
The species entered for series [17] is Homo sapiens. The series can be described thus: Selectivity index, ratio of IC50 for human PDE1B (10 to 487 residues) expressed in Escherichia coli BL21 codon-plus cells to IC50 for human PDE4D2 (86 to 413 residues) expressed in Escherichia coli BL21 codon-plus cells.
The subject of series [18] is Mus musculus. The series can be described thus: Anti-VaD activity against UCCAO-induced spatial memory deficient C57BL/6J mouse model assessed as improvement in spatial learning and memory by measuring increase in latency time at 10 mg/kg, po administered for 21 days by passive avoidance test. Type of series: functional, organism-based.

Activity calls are given as the source filed them. The rule behind the calls is not given here.

Chain of Dual specificity calcium/calmodulin-dependent 3',5'-cyclic nucleotide phosphodiesterase 1B (Q01064 whole entry, the tested form may be a part): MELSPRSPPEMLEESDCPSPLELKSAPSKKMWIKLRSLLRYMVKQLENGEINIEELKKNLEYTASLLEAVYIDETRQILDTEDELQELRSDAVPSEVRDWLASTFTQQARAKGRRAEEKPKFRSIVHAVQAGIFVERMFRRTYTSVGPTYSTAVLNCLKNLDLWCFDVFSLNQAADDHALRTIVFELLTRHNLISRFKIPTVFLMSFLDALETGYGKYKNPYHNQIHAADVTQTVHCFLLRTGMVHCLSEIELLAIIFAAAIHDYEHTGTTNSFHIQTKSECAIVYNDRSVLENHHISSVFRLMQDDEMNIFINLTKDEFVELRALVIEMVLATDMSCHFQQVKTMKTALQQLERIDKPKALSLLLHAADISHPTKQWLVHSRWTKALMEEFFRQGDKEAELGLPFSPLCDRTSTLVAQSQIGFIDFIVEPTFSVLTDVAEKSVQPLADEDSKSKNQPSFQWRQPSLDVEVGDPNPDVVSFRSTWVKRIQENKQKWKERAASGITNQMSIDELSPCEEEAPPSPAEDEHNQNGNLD
Chain of High affinity cAMP-specific and IBMX-insensitive 3',5'-cyclic phosphodiesterase 8A (O60658 whole entry, the tested form may be a part): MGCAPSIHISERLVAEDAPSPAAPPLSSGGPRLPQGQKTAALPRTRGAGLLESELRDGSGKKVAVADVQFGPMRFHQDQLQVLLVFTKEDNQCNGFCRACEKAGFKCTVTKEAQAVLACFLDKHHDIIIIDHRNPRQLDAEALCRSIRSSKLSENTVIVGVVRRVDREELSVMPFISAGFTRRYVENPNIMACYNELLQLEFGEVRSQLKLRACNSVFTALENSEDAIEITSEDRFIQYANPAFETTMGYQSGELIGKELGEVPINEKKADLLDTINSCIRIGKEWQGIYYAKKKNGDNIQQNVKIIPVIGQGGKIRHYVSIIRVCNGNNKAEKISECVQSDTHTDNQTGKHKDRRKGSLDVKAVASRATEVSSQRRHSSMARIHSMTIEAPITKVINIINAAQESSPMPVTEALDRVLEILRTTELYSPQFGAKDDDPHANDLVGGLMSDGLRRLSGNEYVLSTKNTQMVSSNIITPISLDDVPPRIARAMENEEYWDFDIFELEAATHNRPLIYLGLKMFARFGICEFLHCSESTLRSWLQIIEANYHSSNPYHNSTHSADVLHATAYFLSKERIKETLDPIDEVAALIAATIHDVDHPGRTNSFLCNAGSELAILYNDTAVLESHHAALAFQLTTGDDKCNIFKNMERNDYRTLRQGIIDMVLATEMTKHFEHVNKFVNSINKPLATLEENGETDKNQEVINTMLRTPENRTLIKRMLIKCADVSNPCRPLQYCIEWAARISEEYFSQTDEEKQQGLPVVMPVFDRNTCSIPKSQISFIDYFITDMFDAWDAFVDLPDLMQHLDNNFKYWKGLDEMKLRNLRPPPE
Chain of Cytochrome P450 1A2 (P05177 whole entry, the tested form may be a part): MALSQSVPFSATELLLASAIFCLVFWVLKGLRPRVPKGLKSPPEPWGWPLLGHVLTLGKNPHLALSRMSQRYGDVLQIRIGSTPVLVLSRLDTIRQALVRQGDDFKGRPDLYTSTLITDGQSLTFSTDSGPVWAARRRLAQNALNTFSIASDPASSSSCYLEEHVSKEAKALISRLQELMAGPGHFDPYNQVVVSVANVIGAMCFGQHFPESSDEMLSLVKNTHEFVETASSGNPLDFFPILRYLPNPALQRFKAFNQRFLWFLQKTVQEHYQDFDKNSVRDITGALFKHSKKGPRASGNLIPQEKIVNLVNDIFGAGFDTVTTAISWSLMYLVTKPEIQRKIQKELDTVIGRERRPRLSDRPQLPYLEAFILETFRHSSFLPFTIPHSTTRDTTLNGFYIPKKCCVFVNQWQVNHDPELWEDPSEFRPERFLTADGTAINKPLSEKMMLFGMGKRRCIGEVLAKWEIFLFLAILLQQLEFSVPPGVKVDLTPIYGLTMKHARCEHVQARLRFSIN
Chain of cAMP and cAMP-inhibited cGMP 3',5'-cyclic phosphodiesterase 10A (Q9Y233 whole entry, the tested form may be a part): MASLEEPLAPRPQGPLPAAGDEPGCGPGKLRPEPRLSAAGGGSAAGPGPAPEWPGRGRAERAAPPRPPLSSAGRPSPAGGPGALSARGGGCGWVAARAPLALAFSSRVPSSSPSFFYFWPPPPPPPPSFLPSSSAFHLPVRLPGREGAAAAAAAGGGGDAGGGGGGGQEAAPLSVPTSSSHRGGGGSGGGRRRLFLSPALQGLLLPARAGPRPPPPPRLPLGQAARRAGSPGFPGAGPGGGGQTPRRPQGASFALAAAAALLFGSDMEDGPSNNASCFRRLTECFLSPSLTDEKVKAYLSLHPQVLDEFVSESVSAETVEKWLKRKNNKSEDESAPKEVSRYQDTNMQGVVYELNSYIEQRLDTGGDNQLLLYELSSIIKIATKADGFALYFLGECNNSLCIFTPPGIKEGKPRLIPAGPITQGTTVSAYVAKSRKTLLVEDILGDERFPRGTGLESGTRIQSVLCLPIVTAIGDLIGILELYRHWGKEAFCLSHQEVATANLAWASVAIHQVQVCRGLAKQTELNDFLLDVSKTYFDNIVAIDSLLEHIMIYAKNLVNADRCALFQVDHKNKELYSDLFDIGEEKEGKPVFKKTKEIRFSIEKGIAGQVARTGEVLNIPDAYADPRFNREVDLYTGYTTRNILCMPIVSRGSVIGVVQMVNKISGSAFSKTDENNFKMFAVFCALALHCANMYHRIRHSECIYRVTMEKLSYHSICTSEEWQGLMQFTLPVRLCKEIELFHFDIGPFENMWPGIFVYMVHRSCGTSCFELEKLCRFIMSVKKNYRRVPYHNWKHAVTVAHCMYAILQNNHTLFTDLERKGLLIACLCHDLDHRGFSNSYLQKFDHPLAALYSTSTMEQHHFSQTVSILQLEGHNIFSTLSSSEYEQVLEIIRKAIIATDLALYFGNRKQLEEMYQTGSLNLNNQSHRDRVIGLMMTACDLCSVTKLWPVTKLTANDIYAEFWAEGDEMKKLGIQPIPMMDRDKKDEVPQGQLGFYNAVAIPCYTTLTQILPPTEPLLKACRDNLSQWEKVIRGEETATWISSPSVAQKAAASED
Chain of Cytochrome P450 2C9 (P11712 whole entry): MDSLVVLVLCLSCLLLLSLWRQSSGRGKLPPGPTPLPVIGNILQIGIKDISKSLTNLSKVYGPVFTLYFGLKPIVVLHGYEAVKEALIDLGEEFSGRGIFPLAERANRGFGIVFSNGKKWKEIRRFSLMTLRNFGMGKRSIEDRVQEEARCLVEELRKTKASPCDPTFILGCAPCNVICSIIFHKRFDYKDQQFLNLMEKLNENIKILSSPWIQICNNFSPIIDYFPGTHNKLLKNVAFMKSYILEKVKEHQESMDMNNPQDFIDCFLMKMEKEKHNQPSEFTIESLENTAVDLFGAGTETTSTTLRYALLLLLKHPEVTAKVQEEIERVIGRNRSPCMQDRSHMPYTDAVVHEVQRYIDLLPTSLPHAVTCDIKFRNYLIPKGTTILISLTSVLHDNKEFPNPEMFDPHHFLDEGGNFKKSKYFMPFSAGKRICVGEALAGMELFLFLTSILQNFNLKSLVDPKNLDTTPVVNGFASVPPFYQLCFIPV

Broadly, the AUC(0-inf) is the area under the concentration-time curve extrapolated to infinity. Read a low AUC(0-inf) as less exposure. For orientation: IC50 means the concentration that gives 50% inhibition. Broadly, the Tmax is the time at which the peak concentration occurs. As usually defined, the half-life is how long it takes for the measured level to halve. What is called bioavailability is dose-corrected exposure relative to a reference, in per cent. A low value points to little systemic uptake. `COc1c(OCCCCCCC(=O)O)cc2oc3cc4c(c(O)c3c(=O)c2c1CC=C(C)C)C=CC(C)(C)O4` yielded an AUC(0-inf) in series [1] of 4790 ng·h/mL. For the same molecule, the Activity in [2] is 0%. For the same molecule, the IC50 in series [3], in series [6], in series [7], in series [9] and in series [16] was above 10 µM in each case. Also, the Tmax in [4] turned out to be 4.98 min. For the same molecule, the half-life at 0.5 µM in series [5] stood at 2.8 h. In [8], this molecule showed a bioavailability of 28%. Besides, the result in [10], in [15] and in series [18] was Active. The fraction unbound at 1 µM in series [11] came to 0.01. Besides, the Ratio IC50 in series [12], in [14] and in series [17] was above 580 each time. Also, the half-life in [13] was 3.48 h.
